The text below walks through data of US20230150974A1 (Foghorn Therapeutics Inc., priority 2020, published 2023).

One assay addresses T1, HiBit-BRG1 (Homo sapiens, UniProt P51532).
T1 construct: expressed in transfected cells
As to the kind of experiment: HiBit-BRG1 cell-based degradation assay (Nano-Glo HiBiT Lytic Detection). Particulars: HeLa cells expressing HiBit-BRG1 and LgBit, 24 h; for DC50: read-out: BRG1 HiBit Degradation IC50; for Dmax: read-out: BRG1 HiBit Degradation Maximum (%). The procedure, abridged: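 Percent degradation derived from lytic HiBiT signal, normalized to DMSO-treated cells and to cells given 2 μM of a known BRM/BRG1 degrader. The HeLa line stably expressed HiBit-BRG1 and LgBit; treatment lasted 24 h at 5000 cells per well.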

The next assay addresses T2, HiBiT-BRM (Homo sapiens, UniProt P51531).
T2 construct: expressed in transfected cells
As to the kind of experiment: HiBiT-BRM cell-based degradation assay (Nano-Glo HiBiT Lytic Detection). Particulars: HeLa cells expressing HiBiT-BRM, 24 h; for DC50: read-out: BRM HiBit Degradation IC50. The procedure, abridged: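 Luminescence from HiBiT–LgBiT complementation in lysates of a stable HiBiT-BRM HeLa line measured after 24 h compound exposure. Degradation expressed as percent relative to DMSO-treated cells and cells given 2 μM of a known BRM/BRG1 degrader.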

T2 sequence (P51531 whole entry): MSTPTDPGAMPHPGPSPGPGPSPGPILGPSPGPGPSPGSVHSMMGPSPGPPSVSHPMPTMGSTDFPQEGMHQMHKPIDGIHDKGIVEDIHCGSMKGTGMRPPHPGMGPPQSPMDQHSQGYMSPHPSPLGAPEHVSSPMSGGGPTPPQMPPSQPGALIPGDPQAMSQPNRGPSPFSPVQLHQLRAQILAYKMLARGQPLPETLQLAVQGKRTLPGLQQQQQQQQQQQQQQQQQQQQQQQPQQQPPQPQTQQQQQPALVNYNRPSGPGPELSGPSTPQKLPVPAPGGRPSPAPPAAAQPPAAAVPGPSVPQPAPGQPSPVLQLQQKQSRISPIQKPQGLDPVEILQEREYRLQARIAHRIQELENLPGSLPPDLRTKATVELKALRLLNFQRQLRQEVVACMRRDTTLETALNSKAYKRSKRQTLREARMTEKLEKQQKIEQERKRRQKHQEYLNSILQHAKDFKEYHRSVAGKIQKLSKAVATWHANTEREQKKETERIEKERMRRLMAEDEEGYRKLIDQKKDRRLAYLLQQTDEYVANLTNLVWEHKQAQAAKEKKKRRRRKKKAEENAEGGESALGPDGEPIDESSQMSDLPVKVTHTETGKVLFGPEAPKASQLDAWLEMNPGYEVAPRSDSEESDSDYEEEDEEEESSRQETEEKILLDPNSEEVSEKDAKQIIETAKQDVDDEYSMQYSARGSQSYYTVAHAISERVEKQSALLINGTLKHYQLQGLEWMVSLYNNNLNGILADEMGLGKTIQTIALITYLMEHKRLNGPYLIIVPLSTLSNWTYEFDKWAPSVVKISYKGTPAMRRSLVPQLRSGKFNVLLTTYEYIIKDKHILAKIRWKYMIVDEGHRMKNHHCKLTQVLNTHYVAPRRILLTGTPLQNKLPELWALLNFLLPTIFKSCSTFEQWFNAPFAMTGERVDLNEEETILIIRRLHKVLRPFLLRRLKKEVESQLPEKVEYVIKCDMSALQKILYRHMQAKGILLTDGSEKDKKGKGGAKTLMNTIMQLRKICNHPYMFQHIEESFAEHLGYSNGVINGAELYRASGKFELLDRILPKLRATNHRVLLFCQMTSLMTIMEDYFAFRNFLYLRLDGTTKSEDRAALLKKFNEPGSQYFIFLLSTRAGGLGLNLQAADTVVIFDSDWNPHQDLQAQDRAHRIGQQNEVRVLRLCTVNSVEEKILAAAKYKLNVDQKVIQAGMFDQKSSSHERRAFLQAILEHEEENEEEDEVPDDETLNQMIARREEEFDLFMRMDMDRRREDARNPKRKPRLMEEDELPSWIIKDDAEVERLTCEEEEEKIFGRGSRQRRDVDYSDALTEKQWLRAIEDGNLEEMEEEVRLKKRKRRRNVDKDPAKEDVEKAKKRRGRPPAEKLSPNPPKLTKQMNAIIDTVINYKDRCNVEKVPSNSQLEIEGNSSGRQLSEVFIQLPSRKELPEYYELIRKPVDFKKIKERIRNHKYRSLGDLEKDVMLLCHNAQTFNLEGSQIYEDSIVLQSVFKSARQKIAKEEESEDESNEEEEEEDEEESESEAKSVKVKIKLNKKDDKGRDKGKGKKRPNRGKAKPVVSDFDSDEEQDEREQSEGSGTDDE
T1 sequence (P51532 whole entry): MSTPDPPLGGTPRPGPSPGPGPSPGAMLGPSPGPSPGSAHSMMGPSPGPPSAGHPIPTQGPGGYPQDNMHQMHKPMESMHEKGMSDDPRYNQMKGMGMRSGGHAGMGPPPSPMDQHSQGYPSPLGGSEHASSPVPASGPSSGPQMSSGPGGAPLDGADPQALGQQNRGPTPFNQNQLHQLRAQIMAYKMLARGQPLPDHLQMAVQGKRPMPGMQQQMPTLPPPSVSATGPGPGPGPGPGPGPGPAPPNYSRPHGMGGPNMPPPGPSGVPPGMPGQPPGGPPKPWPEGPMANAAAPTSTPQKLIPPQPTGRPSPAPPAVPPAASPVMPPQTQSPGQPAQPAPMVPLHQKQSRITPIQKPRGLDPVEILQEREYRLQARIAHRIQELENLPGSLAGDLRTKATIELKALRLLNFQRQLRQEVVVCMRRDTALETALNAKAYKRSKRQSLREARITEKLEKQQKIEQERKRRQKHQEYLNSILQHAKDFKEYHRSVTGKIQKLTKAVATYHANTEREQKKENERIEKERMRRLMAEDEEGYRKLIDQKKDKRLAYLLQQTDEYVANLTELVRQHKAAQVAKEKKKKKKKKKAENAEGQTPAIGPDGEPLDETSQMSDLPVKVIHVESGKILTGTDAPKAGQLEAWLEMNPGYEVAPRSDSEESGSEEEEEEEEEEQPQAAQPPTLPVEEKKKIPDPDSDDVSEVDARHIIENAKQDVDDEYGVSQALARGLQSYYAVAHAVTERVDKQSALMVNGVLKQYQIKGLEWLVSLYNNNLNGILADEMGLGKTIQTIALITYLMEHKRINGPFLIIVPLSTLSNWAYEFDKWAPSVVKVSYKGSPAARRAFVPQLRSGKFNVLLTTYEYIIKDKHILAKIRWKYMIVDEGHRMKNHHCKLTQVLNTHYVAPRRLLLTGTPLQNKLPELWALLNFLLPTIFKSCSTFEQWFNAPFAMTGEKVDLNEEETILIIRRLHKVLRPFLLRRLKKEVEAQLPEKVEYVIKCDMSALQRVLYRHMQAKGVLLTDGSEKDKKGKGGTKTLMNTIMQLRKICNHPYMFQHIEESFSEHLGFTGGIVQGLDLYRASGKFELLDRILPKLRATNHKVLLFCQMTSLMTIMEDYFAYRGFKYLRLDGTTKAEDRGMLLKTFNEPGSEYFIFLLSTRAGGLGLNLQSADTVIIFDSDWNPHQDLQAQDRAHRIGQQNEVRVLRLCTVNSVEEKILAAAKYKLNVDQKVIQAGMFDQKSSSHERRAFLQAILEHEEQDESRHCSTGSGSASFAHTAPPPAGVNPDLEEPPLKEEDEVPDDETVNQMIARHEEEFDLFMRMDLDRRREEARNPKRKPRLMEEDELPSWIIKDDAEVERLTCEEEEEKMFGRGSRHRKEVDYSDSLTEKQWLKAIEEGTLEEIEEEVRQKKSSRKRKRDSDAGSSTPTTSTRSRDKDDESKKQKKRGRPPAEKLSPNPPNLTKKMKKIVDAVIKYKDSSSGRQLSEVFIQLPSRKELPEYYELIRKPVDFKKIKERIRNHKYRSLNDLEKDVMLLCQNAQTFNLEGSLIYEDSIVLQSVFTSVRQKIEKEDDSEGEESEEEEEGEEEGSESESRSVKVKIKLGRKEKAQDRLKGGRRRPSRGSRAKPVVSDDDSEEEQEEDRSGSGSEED

As for `Cc1ncsc1-c1ccc(CNC(=O)[C@@H]2C[C@@H](O)CN2C(=O)[C@@H](NC(=O)CCCCCCCCCCCCCCCC(=O)N(C)Cc2ccc(CCOc3cc(-c4ccccc4O)nnc3N)cc2)C(C)(C)C)cc1` [Compound 228, N1-(4-(2-((3-amino-6-(2-hydroxyphenyl)pyridazin-4-yl)oxy)ethyl)benzyl)-N17-((S)-1-((2S,4R)-4-hydroxy-2-((4-(4-methylthiazol-5-yl)benzyl)carbamoyl)pyrrolidin-1-yl)-3,3-dimethyl-1-oxobutan-2-yl)-N1-methylheptadecanediamide], on HiBit-BRG1, the DC50 was over 100 nM and the Dmax is over 75%. Besides, on HiBiT-BRM, the “BRM HiBit Degradation Maximum (%)” value was “A (“A” indicates maximum degradation ≥75%)” and the DC50 was over 100 nM.
Turning to `Nc1nnc(-c2ccccc2O)cc1OCCc1ccc(CNC(=O)C2CCN(CCOc3ccc4c(c3)C(=O)N(C3CCC(=O)NC3=O)C4=O)CC2)cc1` (stereo not shown) [Compound 19, N-(4-(2-((3-amino-6-(2-hydroxyphenyl)pyridazin-4-yl)oxy)ethyl)benzyl)-1-(2-((2-(2,6-dioxopiperidin-3-yl)-1,3-dioxoisoindolin-5-yl)oxy)ethyl)piperidine-4-carboxamide], at HiBit-BRG1, the DC50 is over 1000 nM and the Dmax is under 50%. On HiBiT-BRM, the “BRM HiBit Degradation Maximum (%)” value is on record as “C (“C” indicates maximum degradation <50%)” and the DC50 is over 1000 nM.
For the molecule `Cc1ncsc1-c1ccc(CNC(=O)[C@@H]2C[C@@H](O)CN2C(=O)[C@@H](NC(=O)CCCCCCCCC(=O)NCc2ccc(CCOc3cc(-c4ccccc4O)nnc3N)cc2)C(C)(C)C)cc1` [Compound 138, N1-(4-(2-((3-amino-6-(2-hydroxyphenyl)pyridazin-4-yl)oxy)ethyl)benzyl)-N10-((S)-1-((2S,4R)-4-hydroxy-2-((4-(4-methylthiazol-5-yl)benzyl)carbamoyl)pyrrolidin-1-yl)-3,3-dimethyl-1-oxobutan-2-yl)decanediamide], on HiBit-BRG1, the DC50 is over 1000 nM and the Dmax is under 50%. On HiBiT-BRM, the “BRM HiBit Degradation Maximum (%)” value was “A (“A” indicates maximum degradation ≥75%)” and the DC50 was over 100 nM.
For `Cc1ncsc1-c1ccc([C@H](C)NC(=O)[C@@H]2C[C@@H](O)CN2C(=O)[C@@H](NC(=O)CCCCCCCCCCCCCCNCc2ccc(CCOc3cc(-c4ccccc4O)nnc3N)cc2)C(C)(C)C)cc1` [Compound 261, (2S,4R)-1-((S)-2-(15-((4-(2-((3-amino-6-(2-hydroxyphenyl)pyridazin-4-yl)oxy)ethyl)benzyl)amino)pentadecanamido)-3,3-dimethylbutanoyl)-4-hydroxy-N-((S)-1-(4-(4-methylthiazol-5-yl)phenyl)ethyl)pyrrolidine-2-carboxamide], in that order: over 1000 nM, over 50%, “A (“A” indicates maximum degradation ≥75%)” and over 10 nM.
The matching figures for `Cc1ncsc1-c1ccc([C@H](C)NC(=O)[C@@H]2C[C@@H](O)CN2C(=O)[C@@H](c2cc(OCCN3CC(C4CCN(C(=O)c5ccc(CCOc6cc(-c7ccccc7O)nnc6N)cc5)CC4)C3)no2)C(C)C)cc1` [Compound 211, (2S,4R)-1-[(2R)-2-[3-[2-(3-[1-[4-(2-[[3-amino-6-(2-hydroxyphenyl)pyridazin-4-yl]oxy]ethyl)benzoyl]piperidin-4-yl]azetidin-1-yl)ethoxy]-1,2-oxazol-5-yl]-3-methylbutanoyl]-4-hydroxy-N-[(1S)-1-[4-(4-methyl-1,3-thiazol-5-yl)phenyl]ethyl]pyrrolidine-2-carboxamide]: over 1000 nM, over 50%, “A (“A” indicates maximum degradation ≥75%)” and over 10 nM.
For the molecule `Cc1ncsc1-c1ccc([C@H](C)NC(=O)[C@@H]2C[C@@H](O)CN2C(=O)[C@@H](c2cc(OCCN3CC4CN(C(=O)c5ccc(CCOc6cc(-c7ccccc7O)nnc6N)cc5)CC43)no2)C(C)C)cc1` (stereo partly drawn) [Compound 225, (2S,4R)-1-((2R)-2-(3-(2-(3-(4-(2-((3-amino-6-(2-hydroxyphenyl)pyridazin-4-yl)oxy)ethyl)benzoyl)-3,6-diazabicyclo[3.2.0]heptan-6-yl)ethoxy)isoxazol-5-yl)-3-methylbutanoyl)-4-hydroxy-N-((S)-1-(4-(4-methylthiazol-5-yl)phenyl)ethyl)pyrrolidine-2-carboxamide], at HiBit-BRG1, the DC50 is over 100 nM and the Dmax was over 75%. At HiBiT-BRM, the “BRM HiBit Degradation Maximum (%)” value was “A (“A” indicates maximum degradation ≥75%)” and the DC50 is over 100 nM.
On to `Nc1nnc(-c2ccccc2O)cc1OCCc1ccc(C(=O)NCCCCCCCCNC(=O)COc2cccc3c2C(=O)N(C2CCC(=O)NC2=O)C3=O)cc1` (stereo not shown) [Compound 41, N-(8-[[4-(2-[[3-amino-6-(2-hydroxyphenyl)pyridazin-4-yl]oxy]ethyl)phenyl]formamido]octyl)-2-[[2-(2,6-dioxopiperidin-3-yl)-1,3-dioxoisoindol-4-yl]oxy]acetamide], for which, on HiBit-BRG1, the DC50 is over 1000 nM and the Dmax was under 50%. Moreover, at HiBiT-BRM, the “BRM HiBit Degradation Maximum (%)” value is “C (“C” indicates maximum degradation <50%)” and the DC50 is over 1000 nM.
For the molecule `Cc1ncsc1-c1ccc(CNC(=O)[C@@H]2C[C@@H](O)CN2C(=O)[C@@H](NC(=O)CCC(=O)NCc2ccc(CCOc3cc(-c4ccccc4O)nnc3N)cc2)C(C)(C)C)cc1` [Compound 29, N′-[[4-(2-[[3-amino-6-(2-hydroxyphenyl)pyridazin-4-yl]oxy]ethyl)phenyl]methyl]-N-[(2S)-1-[(2S,4R)-4-hydroxy-2-([[4-(4-methyl-1,3-thiazol-5-yl)phenyl]methyl]carbamoyl)pyrrolidin-1-yl]-3,3-dimethyl-1-oxobutan-2-yl]succinamide], at HiBit-BRG1, the DC50 is over 1000 nM and the Dmax is under 50%. Moreover, on HiBiT-BRM, the “BRM HiBit Degradation Maximum (%)” value is “B (“B” indicates maximum degradation ≥50%)” and the DC50 was over 1000 nM.
Regarding `Cc1ncsc1-c1ccc(CNC(=O)[C@@H]2C[C@@H](O)CN2C(=O)[C@@H](NC(=O)CCCCCCCCCCC(=O)NCc2ccc(CCOc3cc(-c4ccccc4O)nnc3N)cc2)C(C)(C)C)cc1` [Compound 37], at HiBit-BRG1, the DC50 is over 1000 nM and the Dmax was under 50%. Besides, on HiBiT-BRM, the “BRM HiBit Degradation Maximum (%)” value is on record as “B (“B” indicates maximum degradation ≥50%)” and the DC50 was over 100 nM.
On to `Nc1nnc(-c2ccccc2O)cc1OCCc1ccc(C(=O)NCCCCCOc2cccc3c2C(=O)N(C2CCC(=O)NC2=O)C3=O)cc1` (stereo not shown) [Compound 21, 4-(2-[[3-amino-6-(2-hydroxyphenyl)pyridazin-4-yl]oxy]ethyl)-N-(5-[[2-(2,6-dioxopiperidin-3-yl)-1,3-dioxoisoindol-4-yl]oxy]pentyl)benzamide], for which, on HiBit-BRG1, the DC50 was over 1000 nM and the Dmax is under 50%. Also, at HiBiT-BRM, the “BRM HiBit Degradation Maximum (%)” value is recorded as “B (“B” indicates maximum degradation ≥50%)” and the DC50 is over 100 nM.
For `Nc1nnc(-c2ccccc2O)cc1OCCc1ccc(CNCCCCCOc2ccc3c(c2)C(=O)N(C2CCC(=O)NC2=O)C3=O)cc1` (stereo not shown) [Compound 116, 5-((5-((4-(2-((3-amino-6-(2-hydroxyphenyl)pyridazin-4-yl)oxy)ethyl)benzyl)amino)pentyl)oxy)-2-(2,6-dioxopiperidin-3-yl)isoindoline-1,3-dione; diformic acid], in that order: over 1000 nM, under 50%, “C (“C” indicates maximum degradation <50%)” and over 1000 nM.
As for `Cc1ncsc1-c1ccc([C@H](C)NC(=O)[C@@H]2C[C@@H](O)CN2C(=O)[C@@H](NC(=O)CCCCCCCCCCCCC(=O)NCc2ccc(CCOc3cc(-c4ccccc4O)nnc3N)cc2)C(C)(C)C)cc1` [Compound 248, N1-(4-(2-((3-amino-6-(2-hydroxyphenyl)pyridazin-4-yl)oxy)ethyl)benzyl)-N14-((S)-1-((2S,4R)-4-hydroxy-2-(((S)-1-(4-(4-methylthiazol-5-yl)phenyl)ethyl)carbamoyl)pyrrolidin-1-yl)-3,3-dimethyl-1-oxobutan-2-yl)tetradecanediamide], at HiBit-BRG1, the DC50 was over 1000 nM and the Dmax was under 50%. Besides, at HiBiT-BRM, the “BRM HiBit Degradation Maximum (%)” value is “A (“A” indicates maximum degradation ≥75%)” and the DC50 is over 10 nM.
For `Cc1ncsc1-c1ccc([C@H](C)NC(=O)[C@@H]2C[C@@H](O)CN2C(=O)[C@@H](NC(=O)CCCCCCCCCCCCCCC(=O)NCc2ccc(CCOc3cc(-c4ccccc4O)nnc3N)cc2)C(C)(C)C)cc1` [Compound 214, N1-(4-(2-((3-amino-6-(2-hydroxyphenyl)pyridazin-4-yl)oxy)ethyl)benzyl)-N16-((S)-1-((2S,4R)-4-hydroxy-2-(((S)-1-(4-(4-methylthiazol-5-yl)phenyl)ethyl)carbamoyl)pyrrolidin-1-yl)-3,3-dimethyl-1-oxobutan-2-yl)hexadecanediamide], in that order: over 1000 nM, under 50%, “A (“A” indicates maximum degradation ≥75%)” and over 10 nM.
